The values below come from patent US7638554B2, “Flavanoids as chemotherapeutic, chemopreventive, and antiangiogenic agents” (SRI International, priority 2002, dated 2009).

pIC50: −log10 of the molar value. Read-outs that look alike come from different tables or passages of the source.

In assay [1] the test system is colon cancer cell line COLO 205. In words: Growth inhibition, sulforhodamine-based protein determination, COLO 205. It is filed as cell-based. Particulars: Homo sapiens, COLO 205, 144 h; continuous exposure six days. How it is done:
(§1) The novel compound SR 13179 was assayed for its ability to inhibit growth in several cancer cell lines. The cell lines studied included breast cancer cell line MCF-7 (ER+); prostate cancer cell lines LNCaP, PC3, and DU145; lung cancer cell line A427; ovarian cancer cell lines IGROV1, OVCAR-3, OVCAR-4, OVCAR-5, OVCAR-8, and SK-OV-3; and colon cancer cell lines COLO 205, HCC-2998, HCT-116, HCT-15, HT29, KM12, AND SW-620.
(§2) The growth assays for the breast cancer cell lines were conducted according to the method of Example 16. For the other cell lines, each assay was conducted with continuous exposure to the test compound at four log concentrations for six days, using a sulforhodamine-based protein determination to measure growth inhibition.

In the next assay the test system is MMP-2. In words: Extracellular level of MMP-2, MCF-10CA1a cells. It is filed as cell-based, human. As to conditions: 5 μM. How it is done:
(§3) The effect of SR13179 on the extracellular levels of TIMP-2 as well as MMP-2 was also investigated. Treatment of MCF-10CA1a cells with SR13179 at 5 μM concentration caused 5- to 8-fold increase in the secreted level of TIMP-2 and a 2-fold decrease in the extracellular level of MMP-2. However, extracellular TIMP-2 protein was always associated with MMP-2 protein, even after the samples were boiled for 10 min and separated under the denaturing conditions of gel electrophoresis.

Assay [2] deals with LNCaP human prostate cancer cells. The assay can be described thus: Cell cycle arrest in LNCaP cells (Hoechst 33258 nuclear morphology, flow cytometry). It is filed as cell-based. How it is done:
To determine whether SR 13179 exerts its antiproliferative activity by perturbing the cell cycle, the nuclear morphology of LNCaP cells was visualized after treatment with SR 13179. The cells were exposed to the compound for 28 h at concentrations of either 0.5 μM or 1 μM and then stained with the nuclear dye Hoechst 33258.
To investigate the mitotic arrest in more detail, flow cytometry was used to study the effect of SR 13179 on cell cycle progression for LNCaP cells.

The test system of the next assay is human TIMP-2 mRNA. In words: Northern blot analysis of TIMP-2 mRNA, MCF10CA1a cells. It is filed as cell-based. Particulars: 0.5, 1, 3, or 5 μM. How it is done:
Northern blotting. Ten μg of total RNA was electrophoresed in 1% agarose gel containing 6% formaldehyde, transferred to nylon membrane (Amersham Hybond N) by capillary blotting and fixed to the filter by exposure to UV. The blot was probed with a 600 bp ^32P-labeled cDNA sequence of human TIMP-2. Hybridizations were carried out at 42° C. in 50% formamide, 5×SSC, 5×Denhardt's solution, 0.1% SDS, and 0.3 mg/ml salmon sperm DNA. Filters were exposed to X-ray film (Kodak XAR-2) at −80° C. using an intensifying screen (Coronex Hi-Plus).
as §3

In assay [3] the test system is prostate cancer cell line LNCaP. The assay can be described thus: Growth inhibition, sulforhodamine-based protein determination, LNCaP. It is filed as cell-based. Particulars: Homo sapiens. On the procedure:
as §1, §2
The procedure of Example 20 was used to evaluate the growth inhibitory effect of various compounds of the invention on LNCaP cells.

Another assay deals with MMP-2 (gelatinase). In words: Zymography of MMP-2 activity in supernatants of MCF-10-CA1a cultures. It is filed as cell-based, human. As to conditions: 5 μM, 48 h, serum-free medium. How it is done:
Zymography. Zymography as used herein is illustrated by the following general procedure. MCF10CA1a cells were grown in 100 mm in diameter tissue culture plates until 90% confluent. The cells were washed once with serum-free medium and placed in serum-free medium for 2 h prior to drug treatment. The candidate agent was added to the plate and the plate was incubated in the 5% CO2 incubator at 37° C. for 16 h. The medium was collected, concentrated and subjected to zymography. In brief, 10 μl of the sample was electrophoresed in 8% polyacrylamide gel containing 0.1% gelatin in the presence of SDS. After electrophoresis, gel was washed two times, 20 min each, in 2.5% Triton X-100 and incubated overnight at 37° C. in a solution containing 50 mM Tris-HCl, pH 8, 5 mM CaCl2, 10 mM ZnCl2 and 0.02% NaN3. The gel was then stained for 30 min with 0.5% Coomassie Brilliant Blue R-250 prepared in 30% methanol/10% acetic acid solution and destained with several washes with water.
The effect of SR 13179 on the activity of MMP-2 (gelatinase) was studied. MCF-10-CA1a cells were treated with 1, 3, and 5 μM SR 13179 in serum-free medium for 48 h. Untreated cells, grown under the same conditions, were used as control. After treatment, supernatants of the cultures were concentrated and subjected to zymography.

For assay [4], the system named is prostate cancer cell line PC-3. In words: Growth inhibition, sulforhodamine-based protein determination, PC-3. It is filed as cell-based. Particulars: 144 h; continuous exposure six days. How it is done:
as §1, §2

For the next assay, the system named is HUVEC cells. The assay can be described thus: Apoptosis in HUVEC cells, TUNEL assay. It is filed as cell-based, human. How it is done: The antiproliferative mechanism was investigated by assaying for apoptosis using the method of Gavrieli et al. using a Promega (Madison, Wis.) apoptosis detection kit (Gavrieli et al. (1992) J Cell. Biol. 119:493-501). Briefly, HUVEC cells were treated with four log concentrations of SR 13179 (1 nM, 10 nM, 100 nM, and 1 μM) and fixed for terminal deoxyribonucleotide transferase-mediated dUTP nick end labeling (TUNEL) assay at 3 h and 6 h. The apoptotic cells were labeled with fluorescent dUTP at DNA strand breaks, and were counterstained with Hoechst 33258 to visualize nuclear morphology. Even at concentrations as low as 10 nM at 3 h, apoptosis was clearly evident as pyknotic nuclei. […] At six hours, there appeared to be massive apoptosis at higher concentrations of SR 13179, such that the cells were detached and lost during the washing steps. It thus appears that the antiproliferative effect of SR 13179 on vascular endothelial cells is mediated by apoptosis.

In general, pIC50 refers to the negative decadic logarithm of the IC50, by convention in mol/L. In the case of `COc1cc(C2CC(O)c3ccc4ccccc4c3O2)cc(OC)c1OC` (stereo not drawn) [SR 13179, 2-(3,4,5-trimethoxyphenyl)-3,4-dihydro-2H-benzo[h]chromen-4-ol], the pIC50 in assay [1] was 6.58; in assay [3] (144 h, continuous exposure six days, read-out: IC50, growth inhibition, LNCaP), 6.68; in assay [3] (Table 5, read-out: Growth Inhibition (IC50), LNCaP cells) it was 6.68; in assay [4], 6.54. In addition, the “decrease in the extracellular level of MMP-2” value in the assay on MMP-2 is listed as 2 fold. Further, the “nuclear morphology (Hoechst 33258)” value in assay [2] (0.5 μM or 1 μM, 28 h) was “chromatin condensation characteristic of a prometaphase arrest”. Further, the “G2/M fraction compared with the control” value in assay [2] (2 μM and greater, 24 h, flow cytometry) is on record as “two-fold increase”. In the assay on human TIMP-2 mRNA, the “TIMP-2 mRNA” value is recorded as “dose-dependent induction”. The “inhibition of MMP-2 activity” value with MMP-2 (gelatinase) was above 50%. Further, the Percent apoptosis in the assay with HUVEC cells (1 nM, 3 h) is given as 10.3%; with HUVEC cells (1 nM, 6 h), 8.5%; in the assay on HUVEC cells (10 nM, 3 h), 10.3%; in the assay with HUVEC cells (10 nM, 6 h), “cells detached”; with HUVEC cells (100 nM, 3 h) it was 11.9%; in the assay with HUVEC cells (100 nM, 6 h), “cells detached”. In addition, the Percent apoptosis with HUVEC cells (1 μM, 3 h) was 16.7%; in the assay on HUVEC cells (1 μM, 6 h) it was “cells detached”. In the assay on HUVEC cells (three hours after exposure, versus control), the “increase in the percentage of detected apoptotic cells” value is given as “two to three fold increase”.
